Experiment [1] has as its target T1, Serotonin 3 (5-HT3) receptor (Homo sapiens) (UniProt P46098+A5X5Y0+O95264+Q70Z44+Q8WXA8). The experiment can be described thus: Compound was tested for agonistic activity against 5-hydroxytryptamine 3 receptor on guinea pig colon at a concentration of 3 uM. The settings on record: Cavia porcellus, target entry is the homologue from another species. The experiment is classed as functional, tissue-based.

For experiment [2], the target named is T1, Serotonin 3 (5-HT3) receptor (Homo sapiens). The experiment can be described thus: Compound was tested for agonistic activity against 5-hydroxytryptamine 3 receptor on guinea pig colon at a concentration of 1 uM. The experiment is classed as functional, tissue-based. The settings on record: Cavia porcellus, target entry is the homologue from another species.

Experiment [3] has the same target. Kind of experiment: Compound was tested for agonistic activity against 5-hydroxytryptamine 3 receptor on guinea pig colon at a concentration of 10 uM. The settings on record: Cavia porcellus, target entry is the homologue from another species. The experiment is classed as functional, tissue-based.
For experiment [4] the target is unchanged. The experiment can be described thus: Compound was tested for agonistic activity against 5-hydroxytryptamine 3 receptor on guinea pig colon at a concentration of 10 uM in the presence of 30 uM MDL 72222. The conditions noted are these: Cavia porcellus, target entry is the homologue from another species. It counts as functional, tissue-based.
Experiment [5] deals with Serotonin 3 (5-HT3) receptor. The experiment can be described thus: Binding affinity towards 5-hydroxytryptamine 3 receptor. The experiment is classed as protein-complex assay.
In experiment [6] the target is 5-hydroxytryptamine receptor 6 (Homo sapiens) (UniProt P50406). Kind of experiment: Percentage of displacement at 5-hydroxytryptamine 6 receptor at 10e-8 M.
Experiment [7] concerns the target 5-hydroxytryptamine receptor 4 (Homo sapiens, UniProt Q13639). The experiment can be described thus: Compound was tested for agonistic activity against 5-hydroxytryptamine 4 receptor on guinea colon at a concentration 0.1 uM. It counts as functional, tissue-based.
Experiment [8] deals with T1, Serotonin 3 (5-HT3) receptor (Homo sapiens). The experiment can be described thus: Percent of control response to 5-HT3 antagonistic activity on guinea colon at a concentration 0.01 uM. It counts as functional, tissue-based. The conditions noted are these: Cavia porcellus, target entry is the homologue from another species.
In experiment [9] the target is Serotonin 2 (5-HT2) receptor (Homo sapiens, UniProt P41595+P28223+P28335). The experiment can be described thus: Compound was tested for binding affinity against 5-hydroxytryptamine 2 receptor. It counts as protein assay.
The target in experiment [10] is T1, Serotonin 3 (5-HT3) receptor (Homo sapiens). Kind of experiment: Percent of control response to 5-HT3 agonistic activity on guinea colon at a concentration 0.01 uM. The experiment is classed as functional, tissue-based. The conditions noted are these: Cavia porcellus, target entry is the homologue from another species.
For experiment [11] the target is unchanged. The experiment can be described thus: Percent of control response to 5-HT3 agonistic activity on guinea colon at a concentration 1 uM. It counts as functional, tissue-based. The conditions noted are these: Cavia porcellus, target entry is the homologue from another species.
Experiment [12] addresses T2, 5-hydroxytryptamine receptor 1A (Homo sapiens, UniProt P08908).
T2 sequence (P08908 whole entry): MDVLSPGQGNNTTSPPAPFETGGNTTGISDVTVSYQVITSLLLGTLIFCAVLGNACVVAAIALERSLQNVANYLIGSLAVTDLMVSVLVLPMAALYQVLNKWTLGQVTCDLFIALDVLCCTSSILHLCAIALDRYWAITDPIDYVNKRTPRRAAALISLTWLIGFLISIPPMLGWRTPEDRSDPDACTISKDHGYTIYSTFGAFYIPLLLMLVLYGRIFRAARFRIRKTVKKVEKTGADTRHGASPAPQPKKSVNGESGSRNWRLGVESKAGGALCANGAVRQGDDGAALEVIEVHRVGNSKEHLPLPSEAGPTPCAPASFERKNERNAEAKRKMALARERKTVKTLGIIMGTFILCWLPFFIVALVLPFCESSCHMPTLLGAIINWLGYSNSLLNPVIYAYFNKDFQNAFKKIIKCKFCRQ
Kind of experiment: Compound was tested for binding affinity against 5-hydroxytryptamine 1A receptor.

Experiment [13] addresses Sodium-dependent dopamine transporter (Homo sapiens) (UniProt Q01959). Kind of experiment: Compound was tested for binding affinity against dopaminergic uptake.
Experiment [14] concerns the target Sodium-dependent noradrenaline transporter (Homo sapiens) (UniProt P23975). The experiment can be described thus: Compound was tested for binding affinity against noradrenergic uptake.
Experiment [15] has as its target T1, Serotonin 3 (5-HT3) receptor (Homo sapiens). The experiment can be described thus: Compound was tested for agonistic activity against 5-hydroxytryptamine 3 receptor on guinea colon at a concentration 0.01 uM. It counts as functional, tissue-based. The conditions noted are these: Cavia porcellus, target entry is the homologue from another species.
Experiment [16] has as its target Serotonin 3 (5-HT3) receptor. The experiment can be described thus: Compound was tested for agonistic activity against 5-HT uptake. The experiment is classed as functional.
Experiment [17] deals with 5-hydroxytryptamine receptor 1D (Homo sapiens, UniProt P28221). The experiment can be described thus: Compound was tested for binding affinity against 5-hydroxytryptamine 1D receptor.
Experiment [18] has as its target T1, Serotonin 3 (5-HT3) receptor (Homo sapiens). Kind of experiment: Percent of control response to 5-HT3 agonistic activity on guinea colon at a concentration 0.1 uM. The settings on record: Cavia porcellus, target entry is the homologue from another species. It counts as functional, tissue-based.
The target of experiment [19] is Serotonin 3 (5-HT3) receptor. Kind of experiment: Compound was tested for binding affinity towards 5-hydroxytryptamine 3 receptor. The experiment is classed as protein-complex assay.
Experiment [20] in a line: Compound was tested for binding affinity against 5-HT1 receptor.
The target in experiment [21] is T1, Serotonin 3 (5-HT3) receptor (Homo sapiens). The experiment can be described thus: Percent of control response to 5-HT3 antagonistic activity on guinea colon at a concentration 1 uM. The experiment is classed as functional, tissue-based. The settings on record: Cavia porcellus, target entry is the homologue from another species.
The target is the same in experiment [22]. The experiment can be described thus: Percent of control response to 5-HT3 agonistic activity on guinea colon at a concentration 1 uM in the presence of 30 uM MDL 72222. The experiment is classed as functional, tissue-based. The conditions noted are these: Cavia porcellus, target entry is the homologue from another species.
In experiment [23] the target is T3, 5-hydroxytryptamine receptor 2C (Homo sapiens, UniProt P28335).
T3 sequence (P28335 whole entry): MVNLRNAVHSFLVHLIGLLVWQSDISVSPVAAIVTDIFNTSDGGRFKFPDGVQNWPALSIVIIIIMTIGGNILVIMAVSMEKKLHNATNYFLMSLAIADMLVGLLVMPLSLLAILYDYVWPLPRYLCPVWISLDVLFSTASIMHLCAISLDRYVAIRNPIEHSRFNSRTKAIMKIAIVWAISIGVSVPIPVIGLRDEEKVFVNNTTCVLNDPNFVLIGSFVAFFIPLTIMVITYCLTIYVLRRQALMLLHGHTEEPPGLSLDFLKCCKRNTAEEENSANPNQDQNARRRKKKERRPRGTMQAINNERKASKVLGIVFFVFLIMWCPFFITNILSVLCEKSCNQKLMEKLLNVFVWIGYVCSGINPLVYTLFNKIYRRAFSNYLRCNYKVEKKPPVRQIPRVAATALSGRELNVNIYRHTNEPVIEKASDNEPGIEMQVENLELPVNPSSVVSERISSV
Kind of experiment: Compound was tested for binding affinity against 5-hydroxytryptamine 2C receptor.

Experiment [24] concerns the target 5-hydroxytryptamine receptor 7 (Homo sapiens) (UniProt P34969). Kind of experiment: Percentage of displacement at 5-hydroxytryptamine 7 receptor at 10e-8 M.
Experiment [25] addresses 5-hydroxytryptamine receptor 1B (Homo sapiens, UniProt P28222). The experiment can be described thus: Compound was tested for binding affinity against 5-hydroxytryptamine 1B receptor.

The term pIC50 denotes the negative decadic logarithm of the IC50, by convention in mol/L.

Structures are written as SMILES. pIC50: −log10 of the molar value.

Chain of 5-hydroxytryptamine receptor 4 (Q13639 whole entry): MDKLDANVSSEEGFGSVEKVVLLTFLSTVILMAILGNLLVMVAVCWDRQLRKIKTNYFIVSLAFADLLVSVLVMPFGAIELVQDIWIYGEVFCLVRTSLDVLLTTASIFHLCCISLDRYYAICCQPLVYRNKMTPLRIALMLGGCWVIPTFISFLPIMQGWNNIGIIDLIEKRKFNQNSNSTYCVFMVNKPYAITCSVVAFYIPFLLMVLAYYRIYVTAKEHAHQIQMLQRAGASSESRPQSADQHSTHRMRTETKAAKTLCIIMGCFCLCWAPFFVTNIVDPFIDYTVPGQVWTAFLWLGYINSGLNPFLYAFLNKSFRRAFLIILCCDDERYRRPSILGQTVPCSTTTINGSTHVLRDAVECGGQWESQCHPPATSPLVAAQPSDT
Chain of Sodium-dependent dopamine transporter (Homo sapiens) (Q01959 whole entry): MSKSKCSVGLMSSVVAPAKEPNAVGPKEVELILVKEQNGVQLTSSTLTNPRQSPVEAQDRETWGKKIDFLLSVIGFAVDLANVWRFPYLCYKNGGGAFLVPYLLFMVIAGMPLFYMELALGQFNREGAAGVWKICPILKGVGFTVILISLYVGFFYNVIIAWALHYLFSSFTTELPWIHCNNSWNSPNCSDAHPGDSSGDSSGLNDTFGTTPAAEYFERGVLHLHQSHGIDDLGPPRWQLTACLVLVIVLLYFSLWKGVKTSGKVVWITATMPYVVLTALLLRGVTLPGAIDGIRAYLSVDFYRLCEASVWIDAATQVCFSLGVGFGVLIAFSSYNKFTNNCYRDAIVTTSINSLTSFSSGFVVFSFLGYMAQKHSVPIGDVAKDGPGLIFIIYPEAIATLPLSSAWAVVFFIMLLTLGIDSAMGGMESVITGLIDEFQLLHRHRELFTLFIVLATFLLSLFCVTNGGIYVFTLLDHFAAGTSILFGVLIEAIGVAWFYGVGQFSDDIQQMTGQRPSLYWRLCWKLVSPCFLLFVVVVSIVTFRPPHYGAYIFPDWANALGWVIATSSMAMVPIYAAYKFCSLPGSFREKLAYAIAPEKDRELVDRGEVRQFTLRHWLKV
Chain of 5-hydroxytryptamine receptor 6 (Homo sapiens) (P50406 whole entry): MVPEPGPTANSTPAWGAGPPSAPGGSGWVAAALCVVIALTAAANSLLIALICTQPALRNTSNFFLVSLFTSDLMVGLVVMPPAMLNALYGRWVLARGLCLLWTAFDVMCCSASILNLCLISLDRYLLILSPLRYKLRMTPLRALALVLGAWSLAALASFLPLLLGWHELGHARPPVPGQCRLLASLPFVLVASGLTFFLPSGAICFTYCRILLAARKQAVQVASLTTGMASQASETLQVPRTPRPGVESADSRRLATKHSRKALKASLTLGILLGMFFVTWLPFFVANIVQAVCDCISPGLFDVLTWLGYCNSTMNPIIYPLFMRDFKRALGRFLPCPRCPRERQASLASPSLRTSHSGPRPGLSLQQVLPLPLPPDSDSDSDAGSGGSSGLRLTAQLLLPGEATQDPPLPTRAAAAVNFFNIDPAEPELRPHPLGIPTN
Chain of Sodium-dependent noradrenaline transporter (Homo sapiens) (P23975 whole entry): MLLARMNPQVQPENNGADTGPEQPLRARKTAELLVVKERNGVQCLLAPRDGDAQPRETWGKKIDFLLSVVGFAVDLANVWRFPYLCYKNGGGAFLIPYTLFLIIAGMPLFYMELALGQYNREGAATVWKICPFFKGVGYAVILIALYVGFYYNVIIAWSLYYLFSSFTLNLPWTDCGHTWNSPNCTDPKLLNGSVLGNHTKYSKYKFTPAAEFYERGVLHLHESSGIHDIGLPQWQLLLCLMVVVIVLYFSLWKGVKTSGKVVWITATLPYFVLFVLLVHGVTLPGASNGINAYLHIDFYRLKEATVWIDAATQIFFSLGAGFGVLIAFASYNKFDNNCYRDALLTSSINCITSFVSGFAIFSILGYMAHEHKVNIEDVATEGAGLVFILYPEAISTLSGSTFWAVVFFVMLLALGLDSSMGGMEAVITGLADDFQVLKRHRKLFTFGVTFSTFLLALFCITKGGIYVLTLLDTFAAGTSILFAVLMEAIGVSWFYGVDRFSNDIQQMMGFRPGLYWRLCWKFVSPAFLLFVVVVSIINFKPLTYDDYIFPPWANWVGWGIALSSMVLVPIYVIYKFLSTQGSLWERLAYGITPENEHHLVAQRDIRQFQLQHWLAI
Chain of 5-hydroxytryptamine receptor 1B (P28222 whole entry): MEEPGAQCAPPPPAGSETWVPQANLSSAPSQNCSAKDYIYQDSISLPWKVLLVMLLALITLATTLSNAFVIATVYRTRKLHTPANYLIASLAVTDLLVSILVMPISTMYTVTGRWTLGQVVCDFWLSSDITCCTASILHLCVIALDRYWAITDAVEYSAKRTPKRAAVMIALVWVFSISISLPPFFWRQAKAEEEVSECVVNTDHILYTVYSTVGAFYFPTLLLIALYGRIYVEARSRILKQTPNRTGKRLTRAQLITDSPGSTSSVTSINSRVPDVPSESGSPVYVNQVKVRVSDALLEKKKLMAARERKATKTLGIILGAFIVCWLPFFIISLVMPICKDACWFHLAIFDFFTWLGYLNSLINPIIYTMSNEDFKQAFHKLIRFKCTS
Chain of 5-hydroxytryptamine receptor 7 (Homo sapiens) (P34969 whole entry): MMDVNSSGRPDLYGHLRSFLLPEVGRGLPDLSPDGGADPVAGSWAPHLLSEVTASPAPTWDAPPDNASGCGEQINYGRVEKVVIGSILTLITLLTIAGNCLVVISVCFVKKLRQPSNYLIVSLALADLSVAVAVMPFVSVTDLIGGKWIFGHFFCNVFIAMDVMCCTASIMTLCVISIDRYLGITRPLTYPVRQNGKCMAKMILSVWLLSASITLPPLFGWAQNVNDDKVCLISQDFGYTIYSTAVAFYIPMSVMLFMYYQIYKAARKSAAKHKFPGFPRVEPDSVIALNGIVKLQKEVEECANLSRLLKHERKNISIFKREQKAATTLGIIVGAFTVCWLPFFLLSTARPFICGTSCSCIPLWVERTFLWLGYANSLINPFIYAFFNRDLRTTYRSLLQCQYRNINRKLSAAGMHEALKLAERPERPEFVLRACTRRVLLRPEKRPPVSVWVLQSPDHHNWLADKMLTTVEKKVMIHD
Chain of 5-hydroxytryptamine receptor 1D (P28221 whole entry): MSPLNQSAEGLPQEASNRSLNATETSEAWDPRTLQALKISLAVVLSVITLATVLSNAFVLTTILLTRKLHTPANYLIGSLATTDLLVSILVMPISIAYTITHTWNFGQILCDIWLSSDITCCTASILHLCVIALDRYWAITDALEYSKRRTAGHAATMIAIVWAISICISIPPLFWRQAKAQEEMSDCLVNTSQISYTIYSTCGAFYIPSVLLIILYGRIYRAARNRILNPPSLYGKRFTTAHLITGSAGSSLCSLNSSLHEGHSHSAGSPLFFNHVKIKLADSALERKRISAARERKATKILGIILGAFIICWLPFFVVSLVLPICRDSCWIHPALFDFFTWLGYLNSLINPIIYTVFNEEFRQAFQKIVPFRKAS

For `NCCc1c[nH]c2ccc(O)cc12`, the Agonist activity in [1] stood at 76; in experiment [2] it was 41; in [3] it was 90; in [4], 0.
Regarding `Cc1csc2c1-n1cccc1/C2=N/OCCNCc1ccccc1`, the “-Log IC50” value in experiment [5] is on record as 7.54.
Same read-out and setting: next, `CN(C)CCO/N=C1\c2sccc2-n2cccc21`: 8.46.
Regarding `CN(CCO/N=C1\c2sccc2-n2cccc21)Cc1ccccc1`, the “-Log IC50” value in experiment [5] is on record as 7.63.
For the molecule `Cc1csc2c1-n1cccc1/C2=N/OCCN1CCCCC1`, in [5], the “-Log IC50” value is 8.4.
Consider `Cc1ccc(-c2csc3c2-n2cccc2/C3=N/OCCN)cc1`, for which the “-Log IC50” value in experiment [5] was 6.66.
Still for that read-out and setting: next, `Cc1csc2c1-n1cccc1/C2=N/OCCN(C)Cc1ccccc1`: 8.16; `Cc1csc2c1-n1cccc1/C2=N/OCCCN(C)Cc1ccccc1`: 7.47; `Cc1csc2c1-n1cccc1/C2=N/OCCN`: 7.62.
Take `Cc1csc2c1-n1cccc1/C2=N/OCCCN(C)C`: the “-Log IC50” value in experiment [5] was 8.6.
As to `Cc1csc2c1-n1cccc1/C2=N/OCCN1CCCC1`, the “-Log IC50” value in experiment [5] is recorded as 8.7.
On to `Cc1csc2c1-n1cccc1/C2=N/OCCC1CCCN1C` (configuration not stated), for which the “-Log IC50” value in experiment [5] was found to be 8.7.
Same read-out and setting: next, `CCN(CC)CCO/N=C1\c2sccc2-n2cccc21`: 8.3.
As for `NCCO/N=C1\c2ccccc2-n2cccc21`, the “-Log IC50” value in experiment [5] is reported as 6.66.
`CN(C)CCO/N=C1\c2ccccc2-n2cccc21`: the “-Log IC50” value in experiment [5] is given as 8.24.
As for `c1ccc(CNCCO/N=C2\c3ccccc3-n3cccc32)cc1`, the “-Log IC50” value in experiment [5] was determined as 6.54.
For the molecule `Cc1csc2c1-n1cccc1/C2=N/OCCN(C)C`, the Displacement in [6] and in experiment [24] was 0% in each case. Also, the pIC50 in [7] is 6.06; in experiment [12], 5.24; in experiment [17] it was 6.32; in experiment [23], 5.67; in experiment [25], 5.57. For the same molecule, the Activity in experiment [8] came out at 64; in experiment [10] it was 0; in experiment [11], 0; in [15] it was 0; in [18], 37; in [21], 16. Besides, in experiment [22], the Activity worked out at 73. Also, the “-Log IC50” value was 5.5 in experiment [9], 6.92 in experiment [16], 9.1 in [19] and 5.66 in experiment [20]. Also, the Affinity in [13] was found to be 5.28%; in [14], 6%.
As for `CN(C)CCO/N=C1\c2cc(Cl)ccc2-n2cccc21`, the “-Log IC50” value in experiment [5] is recorded as 7.06.
Still for that read-out and setting: next, `c1ccc(CN2CCN(c3nc4sccc4n4cccc34)CC2)cc1`: 8.34; `CN1CCCC1CCO/N=C1\c2ccccc2-n2cccc21` (configuration not stated): 7.85.

(Values after ChEMBL document CHEMBL1134183, “First tricyclic oximino derivatives as 5-HT3 ligands” (Bioorg Med Chem Lett, 2001).)
